Source: patent US9085607B2, “ACH-0142684 sodium salt polymorph, composition including the same, and method of manufacture thereof” (Achillion Pharmaceuticals Inc., priority 2013, dated 2015)
Entries after “also recorded” stand apart in the source; their conditions may differ. One block for each molecule: values may come before it.

How the values were obtained:
Assay type in all cases: physicochemical
[1] = Vacuum oven drying and re-analysis by PXRD for form change
Experimental: PXRD diffractograms were acquired using either a Bruker D8 Discovery diffractometer with a HI-STAR GADDS detector or PANalytical X′Pert Pro diffractometer on Si zero-background wafers. All diffractograms were collected using Cu Kα (45 kV/40 mA) radiation and a step size of 0.02° 2θ unless noted otherwise.
A sample of Polymorph A was dried in a vacuum oven at 55° C. overnight with a small flow of nitrogen. FIG. 1 is a graph showing the results of X-ray powder diffraction analysis of pre-dried (lower trace) and post-dried (upper trace) Polymorph A sample. FIG. 2 is a graph showing the results of differential scanning calorimetry overlay of a pre-dried (lower trace) and post-dried (upper trace) Polymorph A sample. FIG. 3 is a graph showing the results of thermogravimetric analysis of the Form A polymorph.
A small amount of Polymorph B was dried in a vacuum oven at 50° C. for 16 hours and the sample was re-analyzed by PXRD to observe if there were any form changes.

[2] = Solubility in screen solvents derived from loading in solvent and dissolution; details: organic solvent or mixture, thermodynamic from solid
Excerpt: They were selected based on a diverse range of properties including dielectric constants, boiling points, and H-bonding that are important to crystallization and crystal-form discovery. The values in TABLE 2 are derived from ACH-0142684 loading in solvent and dissolution. The symbol † indicates the solubility value is found in TABLE 1.

[3] = Competitive ripening study between Polymorphs A and G; details: slurry in 2-propanol, room temperature, sample isolated after 48 hours
Experimental: A competitive ripening study was conducted between Polymorphs A and G at room temperature to determine their relative stabilities. Approximately 5 mg of Polymorphs A and G were added to a 2-mL HPLC vial containing 0.5 mL of 2-propanol. The suspension was stirred at room temperature for two days. Aliquots of the slurry were filtered after 20 and 48 hours. The isolated solids were analyzed by PXRD to determine any form conversion.

[4] = Crystallization screening (temperature cycling, cooling, evaporation, vapor diffusion), form stability; details: 48 solvents/mixtures
Experimental: Crystallization experiments were conducted in 48 solvents and aqueous mixtures using the following three crystallization modes:
Temperature-cycled ripening of API slurries between 5-40° C. for 48 hours;
Cooling of saturated solutions prepared at RT to 5° C. (24 hours);
Slow evaporation of saturated solutions at RT.In addition, 10 vapor diffusion experiments were also conducted (Table 4) at RT. These solvent systems were selected based on API solubility, and the miscibility and boiling points of solvents and anti-solvents.
All solid outputs from the screen were isolated and analyzed by FT-Raman spectroscopy and/or PXRD. The samples were then sorted into polymorphs based on Raman spectral match. Representative samples from each of the polymorphs were further analyzed by additional techniques (PXRD, DSC, TGA-IR, PLM, etc.) as appropriate and as sample quantity permitted.
Characterization data and more detailed discussion of the different crystal forms are summarized in the following sections. In TABLES 3 and 4, A, B, C, D, or E, etc. indicates the respective crystalline polymorph obtained. “Amorphous” indicates an amorphous solid was obtained, (-) indicates the experiment was not performed, and a blank space indicates no solid was obtained. The screening study led to one hydrated form (Polymorph A) and multiple solvated forms (Polymorph s B-E). […]

[5] = Solubility in water after temperature cycling between 40° C. and 5° C.; details: thermodynamic from solid, cycling between 40° C. and 5° C. for 2 days
Experimental: (§1) The solubility of ACH-0142684 sodium salt was determined at room temperature using the following procedure. The input material (˜10 mg) was weighed into each of 12 vials, followed by addition of a solvent in multiple aliquots between 50μL to 10-mL at room temperature. Samples were visually inspected for complete dissolution after each solvent addition. The solubility of crystalline ACH-0142684 sodium salt is summarized in TABLE 1, which provides a solubility assessment of amorphous API in 12 solvents. The solubility of API-0142684 in water after temperature cycling between 40° C. and 5° C. for 2 days is ˜50 mg/ml.

[6] = Solubility assessment at room temperature by solvent aliquot addition and visual inspection; details: thermodynamic from solid
Experimental: as §1

SMILES: COc1ccc2c(O[C@@H]3C[C@H]4C(=O)N[C@]5(C(=O)[N-]S(=O)(=O)C6CC6)C[C@H]5/C=C\CCCCC[C@H](CC(=O)N5CCCC(F)(F)C5)C(=O)N4C3)cc(-c3nc(C(C)C)cs3)nc2c1C.[Na+] [Polymorph B]
Form stability on drying (PXRD of dried sample) ([1]; vacuum oven at 50° C. for 16 hours): does not show any change in form but the peaks appear to be broader

solubility ([2]; 1,4-Dioxane): < 50 mg/mL
solubility ([2]; 1-Butanol): < 50 mg/mL
solubility ([2]; 1-Methoxy-2-propanol): > 80 mg/mL
solubility ([2]; 1-propanol): < 50 mg/mL
solubility ([2]; 2-Butanone): < 50 mg/mL
solubility ([2]; 2-Methoxyethyl ether): < 90 mg/mL
solubility ([2]; 2-methoxyethanol): > 93 mg/mL
solubility ([2]; 2-propanol with 20 vol % water, 2-propanol: 20 vol % Water): < 95 mg/mL
solubility ([2]; 2-propanol: 5 vol % Water): < 50 mg/mL
solubility ([2]; 2-propanol: 10 vol %): < 50 mg/mL
solubility ([2]; 4-Methyl-2-pentanone): < 50 mg/mL
solubility ([2]; Acetone: 5 vol % Water): < 50 mg/mL
solubility ([2]; Acetone: 10 vol % Water): < 99 mg/mL
solubility ([2]; Acetonitrile: 5 vol % Water): < 50 mg/mL
solubility ([2]; Acetonitrile: 10 vol %): < 50 mg/mL
solubility ([2]; Chlorobenzene): < 50 mg/mL
solubility ([2]; Chloroform): > 153 mg/mL
solubility ([2]; Cyclohexane): < 50 mg/mL
solubility ([2]; Cyclohexanone): > 87 mg/mL
solubility ([2]; DMF): > 93 mg/mL
solubility ([2]; Dimethyl Carbonate): < 50 mg/mL
solubility ([2]; Dioxane: 10 vol % Water): > 93 mg/mL
solubility ([2]; EtOAc:pentane (1:1)): < 50 mg/mL
solubility ([2]; EtOAc:pentane (1:4)): < 50 mg/mL
solubility ([2]; EtOAc:pentane (1:10)): < 50 mg/mL
solubility ([2]; EtOH): < 72 mg/mL
solubility ([2]; Isopropyl acetate): < 50 mg/mL
solubility ([2]; Isopropyl ether): < 50 mg/mL
solubility ([2]; MeOAc): < 50 mg/mL
solubility ([2]; Methanol: 5 vol % Water): > 177 mg/mL
solubility ([2]; Methanol: 10 vol % Water): > 85 mg/mL
solubility ([2]; Pentane): < 50 mg/mL
solubility ([2]; THF: 5 vol % Water): > 85 mg/mL
solubility ([2]; THF: 10 vol % Water): > 107 mg/mL
solubility ([2]; acetone with 20 vol % water, Acetone: 20 vol % Water): < 96 mg/mL
solubility ([2]; nitromethane): < 50 mg/mL
SMILES: COc1ccc2c(O[C@@H]3C[C@H]4C(=O)N[C@]5(C(=O)NS(=O)(=O)C6CC6)C[C@H]5/C=C\CCCCC[C@H](CC(=O)N5CCCC(F)(F)C5)C(=O)N4C3)cc(-c3nc(C(C)C)cs3)nc2c1C [ACH-0142684]

SMILES: COc1ccc2c(O[C@@H]3C[C@H]4C(=O)N[C@]5(C(=O)[N-]S(=O)(=O)C6CC6)C[C@H]5/C=C\CCCCC[C@H](CC(=O)N5CCCC(F)(F)C5)C(=O)N4C3)cc(-c3nc(C(C)C)cs3)nc2c1C.[Na+] [Polymorph A]
Relative stability of Polymorphs A and G (PXRD of isolated solids) [3]: the more stable form at room temperature
Form stability indicated by crystallization screen outcome [4]: the most stable form at the crystallization conditions studied; also recorded: stable form at/around room temperature
Form stability on drying (PXRD of dried sample) ([1]; vacuum oven at 55° C. overnight, small flow of nitrogen): does not show any change in form or crystallinity

SMILES: COc1ccc2c(O[C@@H]3C[C@H]4C(=O)N[C@]5(C(=O)[N-]S(=O)(=O)C6CC6)C[C@H]5/C=C\CCCCC[C@H](CC(=O)N5CCCC(F)(F)C5)C(=O)N4C3)cc(-c3nc(C(C)C)cs3)nc2c1C.[Na+] [ACH-0142684 sodium salt]
solubility at 2 days [5]: ~50 mg/mL
solubility ([6]; organic solvent or mixture, ACN): 1 to 1.2 mg/mL
solubility ([6]; organic solvent or mixture, DCM): 49 to 98 mg/mL
solubility ([6]; organic solvent or mixture, DMSO): 97 to 129 mg/mL
solubility ([6]; organic solvent or mixture, EtOAc): < 1.02 mg/mL
solubility ([6]; organic solvent or mixture, IPA): 1.1 to 1.3 mg/mL
solubility ([6]; organic solvent or mixture, MTBE): < 0.93 mg/mL
solubility ([6]; organic solvent or mixture, MeOH): 92 to 123 mg/mL
solubility ([6]; organic solvent or mixture, TFE): 100 to 133 mg/mL
solubility ([6]; organic solvent or mixture, THF): 9.2 to 18.4 mg/mL
solubility ([6]; organic solvent or mixture, Toluene): < 1.04 mg/mL
solubility ([6]; organic solvent or mixture, acetone): 5.7 to 14 mg/mL
solubility ([6]; Water): < 0.99 mg/mL
